The results in this text go back to patent publication US7388097B2, “Difluoromethyl thiazolyl carboxanilides” (Bayer CropScience AG, priority 2002, dated 2008).

For orientation: chromatographic logP means lipophilicity estimated from chromatographic retention.

Each structure is given as a SMILES string.

The nature of data set [1]: logP determination by HPLC on reverse-phase column (C 18), EEC Directive 79/831 Annex V.A8. Format: physicochemical. As to conditions: reverse-phase C18 HPLC column; pH 2.3; HPLC reverse-phase C 18; 43° C.; 0.1% aqueous phosphoric acid/acetonitrile gradient. On the procedure: The determination of the logP values given in the tables and Preparation Examples above is carried out in accordance with EEC Directive 79/831 Annex V.A8 by HPLC (High Performance Liquid Chromatography) on a reverse-phase column (C 18). Temperature: 43° C.
The determination is carried out in the acidic range at pH 2.3 using the mobile phases 0.1% aqueous phosphoric acid and acetonitrile; linear gradient from 10% acetonitrile to 90% acetonitrile.
Calibration is carried out using unbranched alkan-2-ones (of 3 to 16 carbon atoms) with known logP values (determination of the logP values by the retention times using linear interpolation between two successive alkanones).

Data set [2] has as its system Venturia inaequalis. Description: Venturia Test (Apple)/Protective. Format: in vivo. The note with it: 240 h, protective spray, application rate 10 g/ha, evaluation 10 days after inoculation, 100% = no infection, read-out: % efficacy. On the procedure:
Venturia Test (Apple)/Protective
(§1) To produce a suitable preparation of active compound, 1 part by weight of active compound is mixed with the stated amounts of solvents and emulsifier, and the concentrate is diluted with water to the desired concentration.
To test for protective activity, young plants are sprayed with the preparation of active compound at the stated application rate. After the spray coating has dried on, the plants are inoculated with an aqueous conidia suspension of the apple scab pathogen Venturia inaequalis and then remain in an incubation cabin at about 20° C. and 100% relative atmospheric humidity for 1 day.
The plants are then placed in a greenhouse at about 21° C. and a relative atmospheric humidity of about 90%.
Evaluation is carried out 10 days after the inoculation. 0% means an efficacy which corresponds to that of the control, whereas an efficacy of 100% means that no infection is observed.

Data set [3] relates to Botrytis cinerea. Description: Botrytis Test (Bean)/Protective. Format: in vivo. As to conditions: 48 h, protective spray, application rate 100 g/ha, evaluation 2 days after inoculation, 100% = no infection, read-out: % efficacy. On the procedure:
Botrytis Test (Bean)/Protective
as §1
To test for protective activity, young plants are sprayed with the preparation of active compound at the stated application rate. After the spray coating has dried on, 2 small pieces of agar colonized by Botrytis cinerea are placed onto each leaf. The inoculated plants are placed in a dark chamber at about 20° C. and 100% relative atmospheric humidity.
2 days after the inoculation, the size of the infected areas on the leaves is evaluated. 0% means an efficacy which corresponds to that of the control, whereas an efficacy of 100% means that no infection is observed.

Data set [4] concerns Rhizoctonia solani. The data set can be described thus: In vitro test for the ED50 determination of microorganisms. Format: cell-based. The note with it: 50% inhibition of fungal growth, tested at 0.1, 1, 10 and 100 ppm, 22° C., 3-5 days, photometric 620 nm. On the procedure:
(§2) In Vitro Test for the ED50 Determination of Microorganisms
(§3) A methanolic solution of the active compound to be tested, mixed with the emulsifier PS16, is pipetted into the wells of microtiter plates. After the solvent has evaporated, 200 μl of potato/dextrose medium are added to each well.
(§4) Beforehand, a suitable concentration of spores or mycelium of the fungus to be tested was added to the medium.
(§5) The resulting concentrations of active compound are 0.1, 1, 10 and 100 ppm. The resulting concentration of the emulsifier is 300 ppm.
(§6) The plates are then incubated on a shaker at a temperature of 22° C. for 3-5 days, until sufficient growth can be observed in the untreated control.
(§7) Evaluation is carried out photometrically at a wavelength of 620 nm. The dose of active compound which causes a 50% inhibition of fungal growth compared to the untreated control (ED50) is calculated from the data measured at different concentrations.

Data set [5] has as its system Septoria tritici. The description is as above. The class given is cell-based. The note with it: 50% inhibition of fungal growth, tested at 0.1, 1, 10 and 100 ppm, 22° C., 3-5 days, photometric 620 nm. On the procedure:
as §2, §3, §4, §5, §6, §7

`Cc1nc(C(F)F)c(C(=O)Nc2ccccc2-c2ccc(F)c(Cl)c2)s1` [Example 1, N-(3′-chloro-4′-fluoro-1,1′-biphenyl-2-yl)-2-methyl-4-(difluoromethyl)-1,3-thiazole-5-carboxamide]: the chromatographic logP in data set [1] was found to be 3.28.
In data set [1], `Cc1nc(C(F)F)c(C(=O)Nc2ccccc2-c2ccc(Br)cc2)s1` [Example 2] yielded a chromatographic logP of 3.47. Also, the pest or weed control at 10 g/ha in data set [2] amounted to 100%. For the same compound, the pest or weed control at 100 g/ha in data set [3] was 100%.
Compound `Cc1nc(C(F)F)c(C(=O)Nc2ccccc2-c2ccc(C(F)(F)F)cc2)s1` [Example 3] showed a chromatographic logP in data set [1] of 3.52. The pest or weed control at 10 g/ha in data set [2] was 100%. Also, the pest or weed control at 100 g/ha in data set [3] was 100%. The ED50 in data set [4] is on record as less than 0.1 ppm; in data set [5] it was 0.36 ppm.
`Cc1nc(C(F)F)c(C(=O)Nc2ccccc2-c2cccc(Cl)c2)s1` [Example 4] came in with a chromatographic logP in data set [1] of 3.37. In addition, the pest or weed control at 10 g/ha in data set [2] stood at 100%. For the same compound, in data set [3], the pest or weed control at 100 g/ha worked out at 100%. In addition, the ED50 in data set [4] is less than 0.1 ppm; in data set [5] it was 0.45 ppm.
In data set [1], `Cc1nc(C(F)F)c(C(=O)Nc2ccccc2-c2ccc(OC(F)(F)F)cc2)s1` [Example 5] registered a chromatographic logP of 3.72. In addition, in data set [2], the pest or weed control at 10 g/ha is 87%. For the same compound, the pest or weed control at 100 g/ha in data set [3] was found to be 79%. Also, the ED50 in data set [4] is listed as less than 0.1 ppm; in data set [5], 0.25 ppm.
On the same counts, the results for `CSc1ccc(-c2ccccc2NC(=O)c2sc(C)nc2C(F)F)cc1` [Example 6] are 3.39, 99%, 94%, 3.25 ppm and 3.51 ppm.
The corresponding values for `Cc1nc(C(F)F)c(C(=O)Nc2ccccc2-c2ccc(F)cc2)s1` [Example 7] are 3.09, 100%, 94%, 0.48 ppm and 0.68 ppm.
Regarding `Cc1nc(C(F)F)c(C(=O)Nc2ccccc2-c2ccc(Cl)cc2Cl)s1` [Example 9], in data set [1], the chromatographic logP was determined as 3.58. The pest or weed control at 10 g/ha in data set [2] amounted to 98%. Besides, the pest or weed control at 100 g/ha in data set [3] worked out at 95%.
On the same counts, the results for `Cc1nc(C(F)F)c(C(=O)Nc2ccccc2-c2ccc(Cl)cc2C)s1` [Example 10] are 3.77, 100% and 100%.
`Cc1nc(C(F)F)c(C(=O)Nc2ccccc2-c2ccc(Cl)c(F)c2)s1` [Example 11]: the chromatographic logP in data set [1] turned out to be 3.29. The pest or weed control at 10 g/ha in data set [2] was found to be 100%. Further, the pest or weed control at 100 g/ha in data set [3] turned out to be 100%.
As for `Cc1nc(C(F)F)c(C(=O)Nc2ccccc2-c2ccc(C)c(Cl)c2)s1` [Example 12], the chromatographic logP in data set [1] amounted to 3.62. For the same compound, the pest or weed control at 10 g/ha in data set [2] worked out at 100%. Also, in data set [3], the pest or weed control at 100 g/ha amounted to 100%.
